Drawing on patent US8999991B2, “Inhibitors of the renal outer medullary potassium channel” (Merck Sharp & Dohme Corp., priority 2011, dated 2015), this text covers IC50 for 14 compounds.

The assay deals with T1, hROMK (hKir1.1) (Homo sapiens, UniProt P48048).
T1 construct: expressed in transfected cells; HEK-hKir1.1)
T1 sequence (P48048 1-391): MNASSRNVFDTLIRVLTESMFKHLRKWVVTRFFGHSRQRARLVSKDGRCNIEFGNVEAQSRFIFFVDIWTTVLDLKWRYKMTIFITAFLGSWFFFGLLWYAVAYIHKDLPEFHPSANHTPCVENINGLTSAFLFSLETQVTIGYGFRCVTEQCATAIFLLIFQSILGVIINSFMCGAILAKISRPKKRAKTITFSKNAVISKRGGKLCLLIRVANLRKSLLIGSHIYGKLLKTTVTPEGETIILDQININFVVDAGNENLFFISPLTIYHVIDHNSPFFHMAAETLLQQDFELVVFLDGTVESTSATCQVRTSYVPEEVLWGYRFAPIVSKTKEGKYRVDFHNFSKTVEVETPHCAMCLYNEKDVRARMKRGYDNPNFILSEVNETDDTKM
Nature of the assay: Thallium Flux Assay (ROMK channel functional thallium flux assay, FLIPR-Tetra, 384 wells). Particulars: HEK293 cells stably expressing hROMK (hKir1.1); 30 min incubation with test compound. It is filed as cell-based. The method, then:
The following Thallium Flux Assay was performed on the final product compounds in all the Examples. This assay makes use of the ability of thallium to permeate through open ROMK channels and increase the fluorescence of a dye previously loaded into the cells. Under control conditions, cells loaded with dye and exposed to thallium-containing medium display a time-dependent increase in fluorescence, the rate of which depends on number of functional channels. When cells are incubated in the presence of a channel inhibitor, the increase in fluorescence is attenuated in a concentration-dependent manner, and IC50 values of inhibition by compounds can be accurately determined. This assay has been established with cell lines expressing either human, or rat ROMK channels, and operates in 384-well format.
HEK293 cells stably expressing hROMK (hKir1.1) were grown at 37° C. in a 10% CO2 humidified incubator in complete growth media: Dulbecco's Modified Eagle Medium supplemented with non-essential amino acids, Penicillin/Streptomycin/Glutamine, G418 and FBS. At >80% confluency, aspirate the media from the flask and rinse with 10 mL Calcium/Magnesium-free PBS. Add 5 mL of 1× trypsin (prepared in Ca/Mg Free PBS) to T-225 flask and return flask to 37° C./CO2 incubator for 2-3 minutes. To dislodge the cell, gently bang the side of the flask with your hand. Triturate the cells completely and then transfer the cells to 25 mL complete media. Centrifuge at 1,500 rpm for 6 min followed by resuspension in complete growth media and determine cell concentration. For typical re-seeding, 4E6 cells/T-225 flask will attain >80% confluency in 4 days. Under ideal growth conditions and appropriate tissue culture practices, this cell line is stable for 40-45 passages.
• FluxOR™ Reagent (Component A) • FluxOR™ Assay Buffer (Component B)—10× Concentrate • PowerLoad™ Concentrate (Component C)—100× Concentrate • Probenecid (Component D)—Lyophilized sample is kept at −20° C. Water soluble, 100× after solubilization in 1 mL water. […] Store at 4° C. • Thallium sulfate (Tl2SO4) Concentrate (Component G)—50 mM in water. Store at 4° C. • DMSO (dimethyl sulfoxide, Component H)—1 mL (100%) Reagent Preparation: FluxOR Working Solutions • 1000× FluxOR™ Reagent: Reconstitute a vial of component A in 100 μl DMSO; Mix well; Store 10 μl aliquots at −20° C. • 1× FluxOR™ Assay Buffer: Dilute Component B 10-fold with water; Adjust pH to 7.4 with Hepes/NaOH; Filter and store at 4° C. • Probenecid/Assay Buffer: 100 mL of 1× FluxOR™ Assay Buffer; 1 mL of reconstituted component D; Store at 4° C. • Loading Buffer (per microplate): 10 μl 1000× FluxOR™ Reagent; 100 μl component C; 10 mL Probenecid/Assay Buffer • Compound Buffer (per microplate): 20 mL Probenecid/Assay Buffer; 0.3 mM ouabain (10 mM ouabain in water can be stored in amber bottle/aluminum foil at room temperature); Test compound • 1× FluxOR™ Chloride-Free Buffer: Prepare 1× working solution in water. Can be stored at room temperature • Stimulant Buffer (prepared at 5× final concentration in 1× FluxOR™ Chloride-Free Buffer): 7.5 mM Thallium sulfate and 0.75 mM Potassium sulfate (to give a final assay concentration of 3 mM Thallium/0.3 mM Potassium). Store at 4° C. when not in use. If kept sterile, this solution is good for months. Assay Protocol—
The ROMK channel functional thallium flux assay is performed in 384 wells, using the FLIPR-Tetra instrument. HEK-hKir1.1 cells are seeded in Poly-D-Lysine microplates and kept in a 37° C.-10% CO2 incubator overnight. On the day of the experiment, the growth media is replaced with the FluxOR™ reagent loading buffer and incubated, protected from light, at ambient temperature (23-25° C.) for 90 min. The loading buffer is replaced with assay buffer±test compound followed by 30 min incubation at ambient temperature, where the Thallium/Potassium stimulant is added to the microplate.
• 1. Seed HEK-hKir1.1 cells (50 μl at 20,000 cells/well) in 384-well PDL coated Microplates • 2. […]

In the case of `Cc1cc2c(cc1C(O)CN1CCN(c3ccc4cc(C#N)ccc4c3)C(=O)C1)COC2=O` (racemic) [Example 3, 6-{4-[2-Hydroxy-2-(6-methyl-1-oxo-1,3-dihydro-2-benzofuran-5-yl)ethyl]-2-oxopiperazin-1-yl}naphthalene-2-carbonitrile], the IC50 (commonly the midpoint of a concentration-inhibition curve) turned out to be 70 nM.

Compound `N#Cc1ccc2cc(N3CCN(CCc4ccc5c(c4)COC5=O)CC3=O)ccc2c1` [Example 1, 6-{2-Oxo-4-[2-(1-oxo-1,3-dihydro-2-benzofuran-5-yl)ethyl]piperazin-1-yl}naphthalene-2-carbonitrile] yielded an IC50 of 60 nM.

Take `Cc1c([C@@H](O)CN2CCN(c3ccc4cc(C#N)ccc4c3)C(=O)C2)ccc2c1COC2=O` [Example 2, 6-{4-[(2R)-2-Hydroxy-2-(4-methyl-1-oxo-1,3-dihydro-2-benzofuran-5-yl)ethyl]-2-oxopiperazin-1-yl}naphthalene-2-carbonitrile]: the IC50 came to 50 nM.

The compound `Cc1c([C@@H](O)CN2CCN(c3cc4ccc(C#N)cc4cn3)C(=O)C2)ccc2c1COC2=O` [Example 5, 3-{4-[(2R)-2-Hydroxy-2-(4-methyl-1-oxo-1,3-dihydro-2-benzofuran-5-yl)ethyl]-2-oxopiperazin-1-yl}isoquinoline-7-carbonitrile] returned an IC50 of 80 nM.

In turn, `Cc1c([C@@H](O)CN2CCN(c3ccc4ccc(C#N)cc4c3)C(=O)C2)ccc2c1COC2=O` [Example 6, 7-{4-[(2R)-2-Hydroxy-2-(4-methyl-1-oxo-1,3-dihydro-2-benzofuran-5-yl)ethyl]-2-oxopiperazin-1-yl}naphthalene-2-carbonitrile] displayed an IC50 of 90 nM.

Take `Cc1c([C@@H](O)CN2CCN(c3nc4cc(C#N)ccc4s3)C(=O)C2)ccc2c1COC2=O` [Example 7, 2-{4-[(2R)-2-Hydroxy-2-(4-methyl-1-oxo-1,3-dihydro-2-benzofuran-5-yl)ethyl]-2-oxopiperazin-1-yl}-1,3-benzothiazole-5-carbonitrile]: the IC50 worked out at 40 nM.

In the case of `Cc1c([C@@H](O)CN2CCN(c3ccc4cc(C#N)sc4n3)C(=O)C2)ccc2c1COC2=O` [Example 8, 6-{4-[(2R)-2-Hydroxy-2-(4-methyl-1-oxo-1,3-dihydro-2-benzofuran-5-yl)ethyl]-2-oxopiperazin-1-yl}thieno-[2,3-b]pyridine-2-carbonitrile], inhibition was half-maximal at 160 nM (IC50).

`Cc1c([C@@H](O)CN2CCN(c3nc4ccc(C#N)cc4s3)C(=O)C2)ccc2c1COC2=O` [Example 9, 2-{4-[(2R)-2-Hydroxy-2-(4-methyl-1-oxo-1,3-dihydro-2-benzofuran-5-yl)ethyl]-2-oxopiperazin-1-yl}-1,3-benzothiazole-6-carbonitrile]: the IC50 is 90 nM.

`Cc1c([C@@H](O)CN2CCN(c3ccc4cc(C#N)cnc4c3)C(=O)C2)ccc2c1COC2=O` [Example 10, 7-{4-[(2R)-2-Hydroxy-2-(4-methyl-1-oxo-1,3-dihydro-2-benzofuran-5-yl)ethyl]-2-oxopiperazin-1-yl}quinoline-3-carbonitrile]: half-maximal inhibition (IC50) required 210 nM.

In the case of `Cc1c([C@@H](O)CN2CCN(c3cnc4cc(C#N)ccc4c3)C(=O)C2)ccc2c1COC2=O` [Example 11, 3-{4-[(2R)-2-Hydroxy-2-(4-methyl-1-oxo-1,3-dihydro-2-benzofuran-5-yl)ethyl]-2-oxopiperazin-1-yl}quinoline-7-carbonitrile], the IC50 was determined as 140 nM.

As for `Cc1cc2nc(N3CCN(C[C@H](O)c4ccc5c(c4C)COC5=O)CC3=O)ccc2cc1C#N` [Example 12, 2-{4-[(2R)-2-Hydroxy-2-(4-methyl-1-oxo-1,3-dihydro-2-benzofuran-5-yl)ethyl]-2-oxopiperazin-1-yl}-7-methylquinoline-6-carbonitrile], the IC50 is 80 nM.

Consider `Cc1c([C@@H](O)CN2CCN(c3cc4ccc(C#N)c(C)c4cn3)C(=O)C2)ccc2c1COC2=O` [Example 13, 3-{4-[(2R)-2-Hydroxy-2-(4-methyl-1-oxo-1,3-dihydro-2-benzofuran-5-yl)ethyl]-2-oxopiperazin-1-yl}-8-methylisoquinoline-7-carbonitrile], for which the IC50 turned out to be 150 nM.

`Cc1c([C@@H](O)CN2CCN(c3ccc4cc(C#N)sc4c3)C(=O)C2)ccc2c1COC2=O` [Example 14, 6-{4-[(2R)-2-Hydroxy-2-(4-methyl-1-oxo-1,3-dihydro-2-benzofuran-5-yl)ethyl]-2-oxopiperazin-1-yl}-1-benzothiophene-2-carbonitrile]: 160 nM corresponded to half-maximal inhibition (IC50).

`Cc1c([C@@H](O)CN2CCN(c3ccc4nc(S(C)(=O)=O)ccc4c3)C(=O)C2)ccc2c1COC2=O` [Example 15, 4-[(2R)-2-hydroxy-2-(4-methyl-1-oxo-1,3-dihydro-2-benzofuran-5-yl)ethyl]-1-[2-(methylsulfonyl)quinolin-6-yl]piperazin-2-one] displayed an IC50 of 220 nM. The IC50 values of the last two compounds are within 1.5-fold of each other.
